Several values for one entry are separate records, joined by “and”; a condition that tells them apart may be missing. Identical values can stand only once.
Tests used:
[1] = xn = mol fraction of the nth substance listed

C1CCC(C2CCCCC2)CC1
102 kPa
Conditions	viscosity [mPa·s]
293.15 K	4.06
303.15 K	3.18
313.15 K	2.56
323.15 K	2.1

CC(=O)[O-].C[N+]1(CC2CO2)CCCC1=O (configuration not stated)
101 kPa
Conditions	viscosity
293.15 K	6.55 mPa·s
298.15 K	5.55 mPa·s
303.15 K	4.77 mPa·s
308.15 K	4.13 mPa·s and 4.14 mPa·s
313.15 K	3.62 mPa·s

CCCCC(=O)O
Conditions	viscosity [mPa·s]
298.15 K, 101 kPa	1.97

CCCCCCCCCCCCCC(=O)OCC
100 kPa
Conditions	viscosity [mPa·s]
308.15 K	3.322
318.15 K	2.699
323.15 K	2.451

CCCCCCCCCCCCOC(C)=O
Conditions	viscosity [mPa·s]
303.15 K, 101.3 kPa	3.089

CCCCCCCC[N+](C)(CCCCCCCC)CCCCCCCC.[Cl-]
101 kPa
Conditions	viscosity [mPa·s]
298.15 K	2391
303.15 K	1602
308.15 K	1067
313.15 K	766.1
318.15 K	568.9

CCCCO
Conditions	viscosity
293.15 K, 100 kPa	2.873 mPa·s and 2.61 mPa·s and 2.868 mPa·s
293.15 K, 101 kPa	2.929 mPa·s and 2.868 mPa·s
293.15 K, 101.33 kPa	2.9 mPa·s
298 K, 101.3 kPa	2.507 mPa·s
298 K, 101.33 kPa	2.52 mPa·s
298.15 K, 101.3 kPa	2.442 mPa·s
303 K, 101.33 kPa	2.095 mPa·s
303.15 K, 101 kPa	2.121 mPa·s and 2.002 mPa·s and 2.12 mPa·s
303.15 K, 101.3 kPa	2.129 mPa·s
308 K, 101.3 kPa	1.903 mPa·s
308.15 K, 101.3 kPa	1.856 mPa·s
308.15 K, 101.33 kPa	1.929 mPa·s and 1.949 mPa·s
313 K, 101.3 kPa	1.62 mPa·s
313.15 K, 101 kPa	1.7 mPa·s and 1.687 mPa·s
313.15 K, 101.3 kPa	1.692 mPa·s and 1.817 mPa·s
318 K, 101.3 kPa	1.456 mPa·s
318.15 K, 100 kPa	1.563 mPa·s
318.15 K, 101.33 kPa	1.487 mPa·s
323 K, 100 kPa	1.215 mPa·s
323 K, 101.3 kPa	1.334 mPa·s
323.15 K, 101 kPa	1.361 mPa·s and 1.329 mPa·s
323.15 K, 101.33 kPa	1.393 mPa·s and 1.393 mPa·s and 1.09 mPa·s

CCCCOCCOCCOCCCC
101.3 kPa
Conditions	viscosity [mPa·s]
298.15 K	2.16
308.15 K	1.762
318.15 K	1.408

CCCC[n+]1ccc(C)cc1.N#C[S-]
101 kPa
Conditions	viscosity [mPa·s]
298.15 K	85.69
308.15 K	51.75
318.15 K	33.88

CCOC(=O)C(Cl)(Cl)Cl
Conditions	viscosity [mPa·s]
323.15 K, 101 kPa	1.037

CCOC(=O)Cn1cc[n+](C)c1.[Cl-]
Conditions	viscosity [mPa·s]
298.15 K, 101 kPa	348.6

CCn1cc[n+](C)c1.O=C([O-])C(F)(F)C(F)(F)C(F)(F)C(F)(F)F
101 kPa
Conditions	viscosity [mPa·s]
298.15 K	107.5
308.15 K	65.87
318.15 K	43.09

CSC
Conditions	viscosity [mPa·s]
293.15 K, 101 kPa	0.307

Cc1cccnc1
Conditions	viscosity [mPa·s]
298.15 K, 101 kPa	0.8723

Fc1c(F)c(F)c(F)c(F)c1F
viscosity [mPa·s]
Conditions	293.15 K	298.15 K	303.15 K	308.15 K	313.15 K	318.15 K	323.15 K
101 kPa	0.951	–	0.793	–	0.664	–	0.591
101.33 kPa	0.9446	0.8695	–	0.7631	–	0.6708	–

NCCN1CCNCC1
100 kPa
Conditions	viscosity [mPa·s]
298.15 K	14.48
308.15 K	11.34
318.15 K	7.1

NCCNCCN
101.33 kPa
Conditions	viscosity [mPa·s]
298.15 K	5.52
308.15 K	3.865
318.15 K	3.048
323.15 K	2.698

CC1(C)S[C@@H]2[C@H](NC(=O)[C@H](N)c3ccc(O)cc3)C(=O)N2[C@H]1C(=O)O + O
viscosity [mPa·s], [1], 101 kPa
Conditions	x1 = 9e-06	x1 = 1.8e-05	x1 = 2e-05	x1 = 3.2e-05	x1 = 3.6e-05	x1 = 5e-05	x1 = 6.8e-05
305.15 K	0.7741	0.7672	0.7642	0.7659	0.7708	0.7668	0.7686
310.15 K	0.7042	0.7023	0.6984	0.6991	0.7032	0.7014	0.7026
315.15 K	0.6458	0.6448	0.6386	0.6392	0.6469	0.6401	0.6421

CCCC(N)=O + O
[1], 298.15 K, 101 kPa
Conditions	viscosity [mPa·s]
x1 = 0.00213	0.906
x1 = 0.0179	1.122
x1 = 0.0403	1.458
x1 = 0.04319	1.511

CCCC[N+](CCCC)(CCCC)CCCC.[Br-] + O
[1], 298.15 K, 101 kPa
Conditions	viscosity [mPa·s]
x1 = 0.0009	0.8723
x1 = 0.0089	1.538
x1 = 0.0177	2.273

C[C@H](O)C(=O)O + O
viscosity [mPa·s], [1], 101 kPa
Conditions	x1 = 0.000625	x1 = 0.000941	x1 = 0.00124	x1 = 0.00156	x1 = 0.001899	x1 = 0.002188	x1 = 0.002523	x1 = 0.002822	x1 = 0.003145
298.15 K	0.898	0.902	0.906	0.91	0.914	0.917	0.922	0.926	0.929
308.15 K	0.731	0.734	0.736	0.738	0.741	0.744	0.747	0.75	0.753
318.15 K	0.601	0.602	0.604	0.605	0.607	0.61	0.612	0.614	0.616

Cc1cccnc1 + O
[1], 298.15 K, 101 kPa
Conditions	viscosity [mPa·s]
x1 = 0.02104	1.202
x1 = 0.04558	1.604
x1 = 0.2966	3.291
x1 = 0.6032	1.972

O.OC[C@H]1O[C@H](O[C@H]2[C@H](O)[C@@H](O)[C@H](O)O[C@@H]2CO)[C@H](O)[C@@H](O)[C@@H]1O + O
viscosity [mPa·s], [1]
Conditions	x1 = 0.000899	x1 = 0.001221	x1 = 0.001607	x1 = 0.001874	x1 = 0.002333	x1 = 0.002646	x1 = 0.006
298.15 K, 101 kPa	0.936	0.956	0.974	0.988	1.012	1.026	–
308.15 K, 101 kPa	0.756	0.77	0.785	0.795	0.815	0.825	–
310 K, 101.3 kPa	–	–	–	–	–	–	1.09
318.15 K, 101 kPa	0.626	0.636	0.649	0.657	0.671	0.681	–

— the CheMixHub viscosity set
